{"source": "paper PMC12281424", "about": "“A Rac-specific competitive inhibitor of guanine nucleotide binding reduces metastasis in triple-negative breast cancer” (Cell Reports Medicine, 2025)", "key": {"breast CAF spheroids": {"system": "breast CAF spheroids", "assay": "3D invasion assay", "type": "cell-based, human", "settings": "10^-5 M", "description": "Figure 5 A41 decreases growth and invasiveness of TNBC cells in vitro (A) Representative images of RAC-GTP levels (red) in MDA-MB-468 Luc cells in the absence (CTL) and presence of EHT1864, NSC23766, or A41 (1 h at 10 μM) (left). Luciferase (Luc, green) was used to detect the cells. RAC-GTP mean fluorescence intensity was quantified inside the cell area (right) (n = 31–37 cells from 3 independent experiments; ∗p < 0.05, ∗∗∗p < 0.001) (scale bars: 10 μm). […] (C) Quantification of colony number of indicated cancer cell lines in the presence of A41 (10 μM) expressed as the percentage of control in the absence of A41. Results shown are representative of N > 3 independent experiments. (D) Immunoblot analysis and corresponding quantification of AKT and P44/42 expression and phosphorylation (pAKT, p44/42) in MDA-MB-468 Luc cells in the absence (−) and presence of NSC23766 or A41 (1 h at 10^−5 M). […] (E) 3D invasion assay of MDA-MB-468 Luc and cancer-associated fibroblasts (CAFs) and corresponding quantification (scale bars: 200 μm). […]\n3D-spheroids were obtained, according the protocol previously described,[62] by re-suspending cells at a concentration of 1.25 × 10^4 cells/ml in 20% Methyl-cellulose/80% DMEM 10% FBS. […] Invasion was monitored by fully automated Dmi6000b Wide Field Fluorescence Microscope (Leica Microsystems, Wetzlar, Germany) during 48h."}, "[1]": {"system": "Calcium Channel L-Type, Dihydropyridine", "assay": "Safety screen", "type": "binding, rat"}, "Estrogen ERα": {"target": "Estrogen ERα (Homo sapiens, UniProt P03372)", "sequence (P03372 whole entry)": "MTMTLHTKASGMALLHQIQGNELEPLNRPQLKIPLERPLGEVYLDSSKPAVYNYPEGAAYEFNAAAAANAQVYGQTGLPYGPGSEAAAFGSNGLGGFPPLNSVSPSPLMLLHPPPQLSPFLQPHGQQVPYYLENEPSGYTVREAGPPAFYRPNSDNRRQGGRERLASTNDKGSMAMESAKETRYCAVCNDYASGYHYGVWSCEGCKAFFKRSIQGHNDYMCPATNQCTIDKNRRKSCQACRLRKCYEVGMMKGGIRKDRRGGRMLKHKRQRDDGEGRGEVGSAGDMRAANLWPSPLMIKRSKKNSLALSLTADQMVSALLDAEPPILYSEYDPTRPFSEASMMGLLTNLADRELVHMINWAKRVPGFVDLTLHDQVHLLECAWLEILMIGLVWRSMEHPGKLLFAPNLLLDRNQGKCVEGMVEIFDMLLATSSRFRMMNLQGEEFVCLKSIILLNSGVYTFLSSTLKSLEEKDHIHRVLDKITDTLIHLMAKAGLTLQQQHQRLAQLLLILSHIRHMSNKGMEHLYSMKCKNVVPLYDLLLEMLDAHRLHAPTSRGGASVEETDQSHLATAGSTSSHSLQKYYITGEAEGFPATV", "assay": "Safety screen", "type": "binding", "experimental": "Blood cell counts, kinase profiler, safety screen, bacterial cytotoxicity, Ames, micronucleus assays were performed by the company Eurofins (France)."}, "Opiate κ(OP2, KOP)": {"target": "Opiate κ(OP2, KOP) (Homo sapiens, UniProt P41145)", "assay": "Safety screen", "type": "binding", "experimental": "(§1) Blood cell counts, kinase profiler, safety screen, bacterial cytotoxicity, Ames, micronucleus assays were performed by the company Eurofins (France). The kinase profiler was performed by the company Eurofins (Discovery, Panlab and Cerep)."}, "Opiate µ(OP3, MOP)": {"target": "Opiate µ(OP3, MOP) (Homo sapiens, UniProt P35372)", "assay": "Safety screen", "type": "binding", "experimental": "as §1"}, "A-Raf(h)": {"target": "A-Raf(h) (Homo sapiens, UniProt P10398)", "assay": "Kinase Profiler", "type": "biochemical", "experimental": "as §1"}, "CaMKIß(h)": {"target": "CaMKIß(h) (Homo sapiens, UniProt Q6P2M8)", "assay": "Kinase Profiler", "type": "biochemical", "experimental": "as §1"}, "CDKL2(h)": {"target": "CDKL2(h) (Homo sapiens, UniProt Q92772)", "assay": "Kinase Profiler", "type": "biochemical", "experimental": "(§2) The kinase profiler was performed by the company Eurofins (Discovery, Panlab and Cerep)."}, "EphA4(h)": {"target": "EphA4(h) (Homo sapiens, UniProt P54764)", "sequence (P54764 20-986)": "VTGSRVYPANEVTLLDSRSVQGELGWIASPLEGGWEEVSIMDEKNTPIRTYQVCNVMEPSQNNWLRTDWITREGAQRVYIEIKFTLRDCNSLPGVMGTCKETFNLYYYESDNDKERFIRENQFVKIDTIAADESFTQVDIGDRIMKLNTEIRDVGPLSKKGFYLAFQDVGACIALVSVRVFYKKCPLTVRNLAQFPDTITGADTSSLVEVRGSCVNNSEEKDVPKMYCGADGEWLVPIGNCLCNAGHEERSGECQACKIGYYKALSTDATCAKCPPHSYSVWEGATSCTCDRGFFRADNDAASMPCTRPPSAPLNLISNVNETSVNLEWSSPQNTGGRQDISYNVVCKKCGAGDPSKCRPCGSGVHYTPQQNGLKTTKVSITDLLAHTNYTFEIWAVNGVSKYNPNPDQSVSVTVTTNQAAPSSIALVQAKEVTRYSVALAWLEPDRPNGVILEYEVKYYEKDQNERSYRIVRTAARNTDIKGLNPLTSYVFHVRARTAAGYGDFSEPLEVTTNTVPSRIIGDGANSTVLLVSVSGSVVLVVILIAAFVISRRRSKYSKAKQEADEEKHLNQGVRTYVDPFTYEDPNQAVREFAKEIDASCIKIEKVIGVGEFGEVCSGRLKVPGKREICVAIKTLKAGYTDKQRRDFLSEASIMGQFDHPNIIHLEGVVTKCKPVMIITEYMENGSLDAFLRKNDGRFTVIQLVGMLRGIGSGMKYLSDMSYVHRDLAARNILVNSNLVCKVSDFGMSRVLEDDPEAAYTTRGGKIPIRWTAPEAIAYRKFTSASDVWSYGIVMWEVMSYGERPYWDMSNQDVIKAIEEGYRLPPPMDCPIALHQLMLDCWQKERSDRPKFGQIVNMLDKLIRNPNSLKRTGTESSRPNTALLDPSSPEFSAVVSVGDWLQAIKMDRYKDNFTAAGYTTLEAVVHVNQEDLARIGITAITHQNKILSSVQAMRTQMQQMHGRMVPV", "assay": "Kinase Profiler", "type": "biochemical", "experimental": "as §1"}, "GRK7(h)": {"target": "GRK7(h) (Homo sapiens, UniProt Q8WTQ7)", "assay": "Kinase Profiler", "type": "biochemical", "experimental": "as §1"}, "IR(h), activated": {"target": "IR(h), activated (Homo sapiens, UniProt P06213)", "assay": "Kinase Profiler", "type": "biochemical", "experimental": "as §1"}, "MAPKAP-K2(h)": {"target": "MAPKAP-K2(h) (Homo sapiens, UniProt P49137)", "assay": "Kinase Profiler", "type": "biochemical", "experimental": "as §2"}, "MST2(h)": {"target": "MST2(h) (Homo sapiens, UniProt Q13188)", "assay": "Kinase Profiler", "type": "biochemical", "experimental": "as §1"}, "NEK9(h)": {"target": "NEK9(h) (Homo sapiens, UniProt Q8TD19)", "sequence (Q8TD19 whole entry)": "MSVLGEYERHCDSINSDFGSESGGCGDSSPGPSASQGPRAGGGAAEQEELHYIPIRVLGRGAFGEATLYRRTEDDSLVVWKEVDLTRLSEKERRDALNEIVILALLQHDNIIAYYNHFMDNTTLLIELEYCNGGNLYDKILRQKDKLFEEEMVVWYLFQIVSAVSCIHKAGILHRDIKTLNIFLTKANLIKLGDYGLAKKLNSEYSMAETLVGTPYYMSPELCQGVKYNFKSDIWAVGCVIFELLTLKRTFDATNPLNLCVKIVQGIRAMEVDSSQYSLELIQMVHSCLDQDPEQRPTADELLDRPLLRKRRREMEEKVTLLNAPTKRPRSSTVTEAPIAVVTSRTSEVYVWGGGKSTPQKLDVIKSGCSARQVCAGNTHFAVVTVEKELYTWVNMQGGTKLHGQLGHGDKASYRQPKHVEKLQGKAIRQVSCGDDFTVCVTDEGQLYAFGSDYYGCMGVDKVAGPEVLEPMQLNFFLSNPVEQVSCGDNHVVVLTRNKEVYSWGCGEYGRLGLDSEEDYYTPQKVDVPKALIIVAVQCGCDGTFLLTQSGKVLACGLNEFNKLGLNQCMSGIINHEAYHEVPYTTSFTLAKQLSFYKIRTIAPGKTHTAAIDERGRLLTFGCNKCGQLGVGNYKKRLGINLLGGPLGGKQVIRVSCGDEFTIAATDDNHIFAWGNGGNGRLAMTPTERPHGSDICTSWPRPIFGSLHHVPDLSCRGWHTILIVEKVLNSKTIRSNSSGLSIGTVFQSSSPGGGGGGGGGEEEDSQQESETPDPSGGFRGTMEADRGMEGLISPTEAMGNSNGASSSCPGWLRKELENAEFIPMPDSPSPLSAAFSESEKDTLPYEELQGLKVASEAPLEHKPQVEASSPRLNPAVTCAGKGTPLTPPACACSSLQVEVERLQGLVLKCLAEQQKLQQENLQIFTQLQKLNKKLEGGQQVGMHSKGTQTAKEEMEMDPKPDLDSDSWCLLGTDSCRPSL", "assay": "Kinase Profiler", "type": "biochemical", "experimental": "as §2"}, "NIM1(h)": {"target": "NIM1(h) (Homo sapiens, UniProt Q8IY84)", "assay": "Kinase Profiler", "type": "biochemical", "experimental": "as §2"}, "PAR-1Bα(h)": {"target": "PAR-1Bα(h) (Homo sapiens, UniProt Q7KZI7)", "assay": "Kinase Profiler", "type": "biochemical", "experimental": "as §2"}, "PhKγ2(h)": {"target": "PhKγ2(h) (Homo sapiens, UniProt P15735)", "assay": "Kinase Profiler", "type": "biochemical", "experimental": "as §1"}, "Plk4(h)": {"target": "Plk4(h) (Homo sapiens, UniProt O00444)", "sequence (O00444 whole entry)": "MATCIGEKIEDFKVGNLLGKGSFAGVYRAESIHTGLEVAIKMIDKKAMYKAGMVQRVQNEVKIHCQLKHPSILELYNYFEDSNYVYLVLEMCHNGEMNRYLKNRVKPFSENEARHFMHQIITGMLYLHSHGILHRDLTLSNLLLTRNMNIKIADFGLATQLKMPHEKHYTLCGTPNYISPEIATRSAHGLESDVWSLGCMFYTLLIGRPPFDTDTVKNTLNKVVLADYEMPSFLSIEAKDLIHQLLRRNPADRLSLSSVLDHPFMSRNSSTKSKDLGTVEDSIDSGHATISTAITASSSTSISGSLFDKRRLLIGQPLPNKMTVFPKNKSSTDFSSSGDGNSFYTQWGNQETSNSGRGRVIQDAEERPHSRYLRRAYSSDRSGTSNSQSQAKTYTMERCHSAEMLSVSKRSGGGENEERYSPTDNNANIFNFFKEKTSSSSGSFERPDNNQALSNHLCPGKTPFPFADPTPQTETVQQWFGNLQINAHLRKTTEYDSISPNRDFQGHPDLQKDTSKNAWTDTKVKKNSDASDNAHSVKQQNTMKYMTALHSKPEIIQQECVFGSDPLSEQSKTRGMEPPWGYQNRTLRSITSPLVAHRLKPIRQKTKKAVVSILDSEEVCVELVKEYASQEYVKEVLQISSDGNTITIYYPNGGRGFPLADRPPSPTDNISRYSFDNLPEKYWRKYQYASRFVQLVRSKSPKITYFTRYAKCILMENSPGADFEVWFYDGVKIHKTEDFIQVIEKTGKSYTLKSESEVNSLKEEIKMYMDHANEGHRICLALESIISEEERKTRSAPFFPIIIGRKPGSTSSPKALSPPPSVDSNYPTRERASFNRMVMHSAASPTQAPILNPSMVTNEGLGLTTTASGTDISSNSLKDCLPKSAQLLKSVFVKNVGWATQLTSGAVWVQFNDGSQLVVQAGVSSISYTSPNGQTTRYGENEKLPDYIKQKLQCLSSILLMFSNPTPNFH", "assay": "Kinase Profiler", "type": "biochemical", "experimental": "as §1"}, "PRK1(h)": {"target": "PRK1(h) (Homo sapiens, UniProt Q16512)", "assay": "Kinase Profiler", "type": "biochemical", "experimental": "as §1"}, "Ret (V804L)(h)": {"target": "Ret (V804L)(h) (Homo sapiens, UniProt P07949, V804L)", "assay": "Kinase Profiler", "type": "biochemical", "experimental": "as §2"}, "SIK3(h)": {"target": "SIK3(h) (Homo sapiens, UniProt Q9Y2K2)", "sequence (Q9Y2K2 whole entry)": "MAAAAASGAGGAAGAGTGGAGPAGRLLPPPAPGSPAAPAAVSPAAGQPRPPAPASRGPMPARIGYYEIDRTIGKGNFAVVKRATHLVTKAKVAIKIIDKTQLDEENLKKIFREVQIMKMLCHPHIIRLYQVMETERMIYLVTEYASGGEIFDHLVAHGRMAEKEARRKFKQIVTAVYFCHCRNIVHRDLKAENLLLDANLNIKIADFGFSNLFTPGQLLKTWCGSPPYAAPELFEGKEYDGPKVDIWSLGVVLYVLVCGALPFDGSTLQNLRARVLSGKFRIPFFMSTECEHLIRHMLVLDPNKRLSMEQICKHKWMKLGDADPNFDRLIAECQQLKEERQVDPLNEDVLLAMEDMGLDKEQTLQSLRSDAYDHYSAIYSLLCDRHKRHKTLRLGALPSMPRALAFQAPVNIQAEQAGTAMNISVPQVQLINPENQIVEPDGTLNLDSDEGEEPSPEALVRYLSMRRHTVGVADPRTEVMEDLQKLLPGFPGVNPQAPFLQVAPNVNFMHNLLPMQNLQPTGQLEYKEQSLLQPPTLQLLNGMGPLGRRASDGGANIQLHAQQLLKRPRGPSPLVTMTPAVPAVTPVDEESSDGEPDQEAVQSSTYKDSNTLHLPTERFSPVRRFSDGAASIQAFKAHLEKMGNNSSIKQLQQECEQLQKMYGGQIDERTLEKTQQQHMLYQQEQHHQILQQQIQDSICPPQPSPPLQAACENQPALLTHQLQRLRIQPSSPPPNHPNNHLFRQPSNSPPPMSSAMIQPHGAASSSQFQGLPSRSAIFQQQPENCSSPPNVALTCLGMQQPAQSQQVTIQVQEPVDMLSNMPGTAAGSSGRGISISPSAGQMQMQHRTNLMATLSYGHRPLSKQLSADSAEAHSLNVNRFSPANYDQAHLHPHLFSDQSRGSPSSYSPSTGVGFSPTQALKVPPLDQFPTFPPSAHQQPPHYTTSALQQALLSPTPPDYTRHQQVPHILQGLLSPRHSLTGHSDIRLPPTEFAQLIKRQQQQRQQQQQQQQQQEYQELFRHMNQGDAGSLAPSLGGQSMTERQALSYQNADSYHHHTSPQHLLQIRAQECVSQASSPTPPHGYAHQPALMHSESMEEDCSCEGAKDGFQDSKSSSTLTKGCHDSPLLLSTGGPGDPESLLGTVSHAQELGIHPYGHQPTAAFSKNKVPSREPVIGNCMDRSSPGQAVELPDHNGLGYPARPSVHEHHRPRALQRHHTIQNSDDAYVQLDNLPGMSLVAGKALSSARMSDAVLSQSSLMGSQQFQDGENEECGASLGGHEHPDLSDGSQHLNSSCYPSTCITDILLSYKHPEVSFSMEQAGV", "assay": "Kinase Profiler", "type": "biochemical", "experimental": "as §2"}, "SRPK1(h)": {"target": "SRPK1(h) (Homo sapiens, UniProt Q96SB4)", "assay": "Kinase Profiler", "type": "biochemical", "experimental": "as §2"}, "TAF1L(h)": {"target": "TAF1L(h) (Homo sapiens, UniProt Q8IZX4)", "assay": "Kinase Profiler", "type": "biochemical", "experimental": "as §2"}, "Txk(h)": {"target": "Txk(h) (Homo sapiens, UniProt P42681)", "assay": "Kinase Profiler", "type": "biochemical", "experimental": "as §1"}, "PI3K (p110a/p85a)(m)": {"target": "PI3K (p110a/p85a)(m) (Mus musculus, UniProt P42337)", "assay": "Kinase Profiler", "type": "biochemical", "experimental": "as §1"}, "PI3K (p110a/p85a)(h)": {"target": "PI3K (p110a/p85a)(h) (Homo sapiens, UniProt P42336)", "assay": "Kinase Profiler", "type": "biochemical", "experimental": "as §2"}}, "data": [{"compound": "COc1ccc(OC)c(NS(=O)(=O)c2ccc(NC(=O)CCSc3ccc(C)cc3)cc2)c1", "note": "[Compound A41]", "values": [{"measurement": "invasion of CAF spheroids", "setting": "breast CAF spheroids", "result": "anti-invasion property"}, {"measurement": "% inh.", "setting": "[1]", "result": 85, "unit": "%"}, {"measurement": "% inh.", "setting": "Estrogen ERα", "result": 10, "unit": "%"}, {"measurement": "% inh.", "setting": "Opiate κ(OP2, KOP)", "result": 10, "unit": "%"}, {"measurement": "% inh.", "setting": "Opiate µ(OP3, MOP)", "result": 14, "unit": "%"}, {"measurement": "Activity(%)", "setting": "A-Raf(h)", "result": 85, "unit": "%"}, {"measurement": "Activity(%)", "setting": "CaMKIß(h)", "result": 114, "unit": "%"}, {"measurement": "Activity(%)", "setting": "CDKL2(h)", "result": 103, "unit": "%"}, {"measurement": "Activity(%)", "setting": "EphA4(h)", "result": 111, "unit": "%"}, {"measurement": "Activity(%)", "setting": "GRK7(h)", "result": 100, "unit": "%"}, {"measurement": "Activity(%)", "setting": "IR(h), activated", "result": 104, "unit": "%"}, {"measurement": "Activity(%)", "setting": "MAPKAP-K2(h)", "result": 111, "unit": "%"}, {"measurement": "Activity(%)", "setting": "MST2(h)", "result": 88, "unit": "%"}, {"measurement": "Activity(%)", "setting": "NEK9(h)", "result": 107, "unit": "%"}, {"measurement": "Activity(%)", "setting": "NIM1(h)", "result": 105, "unit": "%"}, {"measurement": "Activity(%)", "setting": "PAR-1Bα(h)", "result": 111, "unit": "%"}, {"measurement": "Activity(%)", "setting": "PhKγ2(h)", "result": 98, "unit": "%"}, {"measurement": "Activity(%)", "setting": "Plk4(h)", "result": 104, "unit": "%"}, {"measurement": "Activity(%)", "setting": "PRK1(h)", "result": 93, "unit": "%"}, {"measurement": "Activity(%)", "setting": "Ret (V804L)(h)", "result": 93, "unit": "%"}, {"measurement": "Activity(%)", "setting": "SIK3(h)", "result": 106, "unit": "%"}, {"measurement": "Activity(%)", "setting": "SRPK1(h)", "result": 114, "unit": "%"}, {"measurement": "Activity(%)", "setting": "TAF1L(h)", "result": 110, "unit": "%"}, {"measurement": "Activity(%)", "setting": "Txk(h)", "result": 118, "unit": "%"}, {"measurement": "Activity(%)", "setting": "PI3K (p110a/p85a)(m)", "result": 102, "unit": "%"}, {"measurement": "Activity(%)", "setting": "PI3K (p110a/p85a)(h)", "result": 100, "unit": "%"}]}]}
